Source: the NIST ThermoML archive (doi:10.1016/j.jct.2016.08.010)
Numbers after ± are expanded uncertainties.

Assay: xn = mol fraction of the nth substance listed
Conditions: 100 kPa, Liquid; for speed of sound: Frequency=3 MHz, Sing-around technique in a fixed-path interferometer; for mass density: Vibrating tube method

Question: Which results are given for CCCCn1cc[n+](C)c1C.F[B-](F)(F)F [1-butyl-2,3-dimethylimidazolium tetrafluoroborate] + CCCCn1cc[n+](C)c1.F[B-](F)(F)F?
Answer: speed of sound (293.15 K, x1 = 0.0917): 1587.2 ± 1.7 m/s; speed of sound (293.15 K, x1 = 0.1281): 1590.7 ± 1.7 m/s; speed of sound (293.15 K, x1 = 0.1633): 1594 ± 1.7 m/s; speed of sound (293.15 K, x1 = 0.2059): 1597.8 ± 1.7 m/s; speed of sound (293.15 K, x1 = 0.2455): 1601.3 ± 1.7 m/s; speed of sound (293.15 K, x1 = 0.2967): 1605.7 ± 1.7 m/s; speed of sound (293.15 K, x1 = 0.3424): 1609.5 ± 1.6 m/s; speed of sound (293.15 K, x1 = 0.3974): 1613.9 ± 1.6 m/s; speed of sound (293.15 K, x1 = 0.4496): 1618.1 ± 1.6 m/s; speed of sound (293.15 K, x1 = 0.4997): 1622 ± 1.6 m/s; speed of sound (293.15 K, x1 = 0.5418): 1625.2 ± 1.6 m/s; speed of sound (293.15 K, x1 = 0.5941): 1629.1 ± 1.6 m/s; speed of sound (293.15 K, x1 = 0.6398): 1632.5 ± 1.6 m/s; speed of sound (293.15 K, x1 = 0.6873): 1636 ± 1.6 m/s; speed of sound (293.15 K, x1 = 0.7388): 1639.9 ± 1.6 m/s; speed of sound (293.15 K, x1 = 0.7963): 1644.1 ± 1.6 m/s; speed of sound (293.15 K, x1 = 0.8482): 1648 ± 1.6 m/s; speed of sound (293.15 K, x1 = 0.8903): 1651.2 ± 1.6 m/s; speed of sound (293.15 K, x1 = 1): 1659.7 ± 1.5 m/s; mass density (293.15 K, x1 = 0.0917): 1198.6 ± 2.1 kg/m3; mass density (293.15 K, x1 = 0.1281): 1197.1 ± 2.1 kg/m3; mass density (293.15 K, x1 = 0.1633): 1195.8 ± 2 kg/m3; mass density (293.15 K, x1 = 0.2059): 1194.4 ± 2 kg/m3; mass density (293.15 K, x1 = 0.2455): 1193.3 ± 2 kg/m3; mass density (293.15 K, x1 = 0.2967): 1192.2 ± 2 kg/m3; mass density (293.15 K, x1 = 0.3424): 1191.3 ± 2 kg/m3; mass density (293.15 K, x1 = 0.3974): 1190.6 ± 2 kg/m3; mass density (293.15 K, x1 = 0.4496): 1190.2 ± 2 kg/m3; mass density (293.15 K, x1 = 0.4997): 1190 ± 2 kg/m3; mass density (293.15 K, x1 = 0.5418): 1190 ± 2 kg/m3; mass density (293.15 K, x1 = 0.5941): 1190.1 ± 2 kg/m3; mass density (293.15 K, x1 = 0.6398): 1190.3 ± 2 kg/m3; mass density (293.15 K, x1 = 0.6873): 1190.6 ± 2 kg/m3; mass density (293.15 K, x1 = 0.7388): 1191 ± 2 kg/m3; mass density (293.15 K, x1 = 0.7963): 1191.6 ± 2 kg/m3; mass density (293.15 K, x1 = 0.8482): 1192.1 ± 2 kg/m3; mass density (293.15 K, x1 = 0.8903): 1192.6 ± 2 kg/m3; mass density (293.15 K, x1 = 1): 1193.5 ± 2 kg/m3; speed of sound (298.15 K, x1 = 0.0917): 1574.1 ± 1.7 m/s; speed of sound (298.15 K, x1 = 0.1281): 1577.4 ± 1.7 m/s; speed of sound (298.15 K, x1 = 0.1633): 1580.6 ± 1.7 m/s; speed of sound (298.15 K, x1 = 0.2059): 1584.3 ± 1.7 m/s; speed of sound (298.15 K, x1 = 0.2455): 1587.7 ± 1.7 m/s; speed of sound (298.15 K, x1 = 0.2967): 1591.9 ± 1.7 m/s; speed of sound (298.15 K, x1 = 0.3424): 1595.7 ± 1.6 m/s; speed of sound (298.15 K, x1 = 0.3974): 1600.1 ± 1.6 m/s; speed of sound (298.15 K, x1 = 0.4496): 1604.1 ± 1.6 m/s; speed of sound (298.15 K, x1 = 0.4997): 1608 ± 1.6 m/s; speed of sound (298.15 K, x1 = 0.5418): 1611.2 ± 1.6 m/s; speed of sound (298.15 K, x1 = 0.5941): 1615.1 ± 1.6 m/s; speed of sound (298.15 K, x1 = 0.6398): 1618.5 ± 1.6 m/s; speed of sound (298.15 K, x1 = 0.6873): 1622 ± 1.6 m/s; speed of sound (298.15 K, x1 = 0.7388): 1625.9 ± 1.6 m/s; speed of sound (298.15 K, x1 = 0.7963): 1630.1 ± 1.6 m/s; speed of sound (298.15 K, x1 = 0.8482): 1634 ± 1.6 m/s; speed of sound (298.15 K, x1 = 0.8903): 1637.2 ± 1.5 m/s; speed of sound (298.15 K, x1 = 1): 1645.7 ± 1.5 m/s; mass density (298.15 K, x1 = 0.0917): 1195.3 ± 2.1 kg/m3; mass density (298.15 K, x1 = 0.1281): 1194 ± 2 kg/m3; mass density (298.15 K, x1 = 0.1633): 1193 ± 2 kg/m3; mass density (298.15 K, x1 = 0.2059): 1191.8 ± 2 kg/m3; mass density (298.15 K, x1 = 0.2455): 1190.9 ± 2 kg/m3; mass density (298.15 K, x1 = 0.2967): 1189.9 ± 2 kg/m3; mass density (298.15 K, x1 = 0.3424): 1189.2 ± 2 kg/m3; mass density (298.15 K, x1 = 0.3974): 1188.6 ± 2 kg/m3; mass density (298.15 K, x1 = 0.4496): 1188.3 ± 2 kg/m3; mass density (298.15 K, x1 = 0.4997): 1188.2 ± 2 kg/m3; mass density (298.15 K, x1 = 0.5418): 1188.2 ± 2 kg/m3; mass density (298.15 K, x1 = 0.5941): 1188.3 ± 2 kg/m3; mass density (298.15 K, x1 = 0.6398): 1188.5 ± 2 kg/m3; mass density (298.15 K, x1 = 0.6873): 1188.9 ± 2 kg/m3; mass density (298.15 K, x1 = 0.7388): 1189.3 ± 2 kg/m3; mass density (298.15 K, x1 = 0.7963): 1189.9 ± 2 kg/m3; mass density (298.15 K, x1 = 0.8482): 1190.4 ± 2 kg/m3; mass density (298.15 K, x1 = 0.8903): 1190.8 ± 2 kg/m3; mass density (298.15 K, x1 = 1): 1191.8 ± 2 kg/m3; speed of sound (303.15 K, x1 = 0.0917): 1562.2 ± 1.7 m/s; speed of sound (303.15 K, x1 = 0.1281): 1565.4 ± 1.7 m/s; speed of sound (303.15 K, x1 = 0.1633): 1568.4 ± 1.7 m/s; speed of sound (303.15 K, x1 = 0.2059): 1572 ± 1.7 m/s; speed of sound (303.15 K, x1 = 0.2455): 1575.3 ± 1.7 m/s; speed of sound (303.15 K, x1 = 0.2967): 1579.5 ± 1.7 m/s; speed of sound (303.15 K, x1 = 0.3424): 1583.1 ± 1.6 m/s; speed of sound (303.15 K, x1 = 0.3974): 1587.4 ± 1.6 m/s; speed of sound (303.15 K, x1 = 0.4496): 1591.5 ± 1.6 m/s
